Experimental data taken from patent publication US10626144B2, “Peptide derivatives and uses thereof” (Nosopharm, priority 2014, dated 2020).
Numbered stars: 1 amine (or outer) side, 2 acyl side, 3 side chain; on linkers, the order of the positions; unused ones are H or OH. Square brackets hold non-standard residues; d marks the D form. Peptide text beside a SMILES is read from it. * marks the point of attachment. Phe(3,4-(OMe)2) = COc1ccc(C[C@H](N)C(=O)O)cc1OC; Phe(3-CONH2) = NC(=O)c1cccc(C[C@H](N)C(=O)O)c1; Abu(4,4,4-F3) = N[C@@H](CC(F)(F)F)C(=O)O; Phe(4-CN) = N#Cc1ccc(C[C@H](N)C(=O)O)cc1; Phe(3-F) = N[C@@H](Cc1cccc(F)c1)C(=O)O; Phe(3-Me) = Cc1cccc(C[C@H](N)C(=O)O)c1; Dab(3S-OH) = NC[C@H](O)[C@H](N)C(=O)O; X4 = N=C(N)NCC/C=C(/N[*:1])C(=O)[*:2]; Phe(2-F) = N[C@@H](Cc1ccccc1F)C(=O)O; ΔZArg = N=C(N)NCC/C=C(\N)C(=O)O; dOrn = NCCC[C@@H](N)C(=O)O; Dab = NCC[C@H](N)C(=O)O; NH(CH2)5NH2 = NCCCCCN*; NH(CH2)4NH2 = NCCCCN*

Legend:
Assay in all cases: MIC, broth microdilution (CLSI), reference strain
Details in all cases: CAMHB
[1] = system: Pseudomonas aeruginosa ATCC 27853
[2] = system: Staphylococcus aureus ATCC 13709
[3] = system: Escherichia coli ATCC 25922
[4] = system: Acinetobacter baumannii ATCC 19606

| Compound | Pa: MIC Pseudomonas aeruginosa ATCC 27853 [1] | Sa: MIC Staphylococcus aureus ATCC 13709 [2] | Ec: MIC Escherichia coli ATCC 25922 [3] | Ab: MIC Acinetobacter baumannii ATCC 19606 [4] |
| --- | --- | --- | --- | --- |
| CC(=O)NCC[C@H](NC(=O)[C@@H](NC(=O)[C@@H](N)CCCCN)[C@@H](O)CN)C(=O)NCC(=O)N[C@H](CCCN)C(=O)N1CCC[C@H]1C(=O)N[C@@H](Cc1cnc[nH]1)C(=O)N[C@@H](CCCCN)C(=O)N/C(=C\CCNC(=N)N)C(N)=O [21.3] (H-K[Dab(3S-OH)][Dab](Ac)G[dOrn]PHK[ΔZArg]-NH2) | − (>32 μg/mL) | ++ (≤8 μg/mL) | − (>32 μg/mL) | − (>32 μg/mL) |
| N=C(N)NCC/C=C(\NC(=O)[C@H](CCCCN)NC(=O)[C@H](Cc1ccccc1F)NC(=O)[C@@H]1CCCN1C(=O)[C@@H](CCCN)NC(=O)CNC(=O)[C@H](CCN)NC(=O)[C@@H](NC(=O)[C@@H](N)CCCCN)[C@@H](O)CN)C(=O)O [21.4] (H-K[Dab(3S-OH)][Dab]G[dOrn]P[Phe(2-F)]K[ΔZArg]-OH) | − (>32 μg/mL) | ++ (≤8 μg/mL) | ++ (≤8 μg/mL) | − (>32 μg/mL) |
| COc1ccc(C[C@H](NC(=O)[C@@H]2CCCN2C(=O)[C@@H](CCCN)NC(=O)CNC(=O)[C@H](CCN)NC(=O)[C@@H](NC(=O)[C@@H](N)CCCCN)[C@@H](O)CN)C(=O)N[C@@H](CCCCN)C(=O)N/C(=C\CCNC(=N)N)C(=O)O)cc1OC [21.5] (H-K[Dab(3S-OH)][Dab]G[dOrn]P[Phe(3,4-(OMe)2)]K[ΔZArg]-OH) | − (>32 μg/mL) | ++ (≤8 μg/mL) | ++ (≤8 μg/mL) | − (>32 μg/mL) |
| N=C(N)NCC/C=C(\NC(=O)[C@H](CCCCN)NC(=O)[C@H](Cc1cccc(C(N)=O)c1)NC(=O)[C@@H]1CCCN1C(=O)[C@@H](CCCN)NC(=O)CNC(=O)[C@H](CCN)NC(=O)[C@@H](NC(=O)[C@@H](N)CCCCN)[C@@H](O)CN)C(=O)O [21.6] (H-K[Dab(3S-OH)][Dab]G[dOrn]P[Phe(3-CONH2)]K[ΔZArg]-OH) | − (>32 μg/mL) | ++ (≤8 μg/mL) | ++ (≤8 μg/mL) | − (>32 μg/mL) |
| N=C(N)NCC/C=C(\NC(=O)[C@H](CCCCN)NC(=O)[C@H](Cc1cccc(F)c1)NC(=O)[C@@H]1CCCN1C(=O)[C@@H](CCCN)NC(=O)CNC(=O)[C@H](CCN)NC(=O)[C@@H](NC(=O)[C@@H](N)CCCCN)[C@@H](O)CN)C(=O)O [21.7] (H-K[Dab(3S-OH)][Dab]G[dOrn]P[Phe(3-F)]K[ΔZArg]-OH) | − (>32 μg/mL) | ++ (≤8 μg/mL) | ++ (≤8 μg/mL) | − (>32 μg/mL) |
| Cc1cccc(C[C@H](NC(=O)[C@@H]2CCCN2C(=O)[C@@H](CCCN)NC(=O)CNC(=O)[C@H](CCN)NC(=O)[C@@H](NC(=O)[C@@H](N)CCCCN)[C@@H](O)CN)C(=O)N[C@@H](CCCCN)C(=O)N/C(=C\CCNC(=N)N)C(=O)O)c1 [21.8] (H-K[Dab(3S-OH)][Dab]G[dOrn]P[Phe(3-Me)]K[ΔZArg]-OH) | − (>32 μg/mL) | ++ (≤8 μg/mL) | ++ (≤8 μg/mL) | − (>32 μg/mL) |
| N#Cc1ccc(C[C@H](NC(=O)[C@@H]2CCCN2C(=O)[C@@H](CCCN)NC(=O)CNC(=O)[C@H](CCN)NC(=O)[C@@H](NC(=O)[C@@H](N)CCCCN)[C@@H](O)CN)C(=O)N[C@@H](CCCCN)C(=O)N/C(=C\CCNC(=N)N)C(=O)O)cc1 [21.9] (H-K[Dab(3S-OH)][Dab]G[dOrn]P[Phe(4-CN)]K[ΔZArg]-OH) | − (>32 μg/mL) | ++ (≤8 μg/mL) | ++ (≤8 μg/mL) | − (>32 μg/mL) |
| COc1ccc(C[C@H](NC(=O)[C@@H]2CCCN2C(=O)[C@@H](CCCN)NC(=O)CNC(=O)[C@H](CCN)NC(=O)[C@@H](NC(=O)[C@@H](N)CCCCN)[C@@H](O)CN)C(=O)N[C@@H](CCCCN)C(=O)N/C(=C\CCNC(=N)N)C(=O)O)cc1 [21.10] (H-K[Dab(3S-OH)][Dab]G[dOrn]PY(Me)K[ΔZArg]-OH) | − (>32 μg/mL) | ++ (≤8 μg/mL) | ++ (≤8 μg/mL) | − (>32 μg/mL) |
| N=C(N)NCC/C=C(\NC(=O)[C@H](CCCCN)NC(=O)[C@H](CC(F)(F)F)NC(=O)[C@@H]1CCCN1C(=O)[C@@H](CCCN)NC(=O)CNC(=O)[C@H](CCN)NC(=O)[C@@H](NC(=O)[C@@H](N)CCCCN)[C@@H](O)CN)C(=O)O [21.11] (H-K[Dab(3S-OH)][Dab]G[dOrn]P[Abu(4,4,4-F3)]K[ΔZArg]-OH) | − (>32 μg/mL) | ++ (≤8 μg/mL) | ++ (≤8 μg/mL) | − (>32 μg/mL) |
| N=C(N)NCC/C=C(\NC(=O)[C@H](CCCCN)NC(=O)[C@H](Cc1c[nH]c2ccccc12)NC(=O)[C@@H]1CCCN1C(=O)[C@@H](CCCN)NC(=O)CNC(=O)[C@H](CCN)NC(=O)[C@@H](NC(=O)[C@@H](N)CCCCN)[C@@H](O)CN)C(=O)O [21.12] (H-K[Dab(3S-OH)][Dab]G[dOrn]PWK[ΔZArg]-OH) | − (>32 μg/mL) | ++ (≤8 μg/mL) | ++ (≤8 μg/mL) | − (>32 μg/mL) |
| N=C(N)NCC/C=C(\NC(=O)[C@H](CCCCN)NC(=O)[C@H](Cc1cnc[nH]1)NC(=O)[C@@H]1CCCN1C(=O)[C@@H](CCCN)NC(=O)CNC(=O)[C@@H](NC(=O)[C@@H](NC(=O)[C@@H](N)CCCCN)[C@@H](O)CN)[C@@H](O)CN)C(=O)N[C@H](CCCCN)C(=O)NCCCCN [22.1] (H-K[Dab(3S-OH)][Dab(3S-OH)]G[dOrn]PHK[ΔZArg][dK]-{NH(CH2)4NH2}) | ++ (≤8 μg/mL) | ++ (≤8 μg/mL) | ++ (≤8 μg/mL) | + (≤32 μg/mL) |
| N=C(N)NCC/C=C(\NC(=O)[C@H](CCCCN)NC(=O)[C@H](Cc1cnc[nH]1)NC(=O)[C@@H]1CCCN1C(=O)[C@@H](CCCN)NC(=O)CNC(=O)[C@@H](NC(=O)[C@@H](NC(=O)[C@@H](N)CCCCN)[C@@H](O)CN)[C@@H](O)CN)C(=O)NCCCCCN [22.2] (H-K[Dab(3S-OH)][Dab(3S-OH)]G[dOrn]PHK[ΔZArg]-{NH(CH2)5NH2}) | + (≤32 μg/mL) | ++ (≤8 μg/mL) | ++ (≤8 μg/mL) | − (>32 μg/mL) |
| N=C(N)NCC/C=C(\NC(=O)[C@H](CCCCN)NC(=O)[C@H](Cc1cnc[nH]1)NC(=O)[C@@H]1CCCN1C(=O)[C@@H](CCCN)NC(=O)CNC(=O)[C@@H](NC(=O)[C@@H](NC(=O)[C@H](N)CCCCN)[C@@H](O)CN)[C@@H](O)CN)C(=O)N[C@@H](CCCCN)C(=O)NCCCCN [22.6] (H-[dK][Dab(3S-OH)][Dab(3S-OH)]G[dOrn]PHK[ΔZArg]K-{NH(CH2)4NH2}) | − (>32 μg/mL) | ++ (≤8 μg/mL) | + (≤32 μg/mL) | − (>32 μg/mL) |
| N=C(N)NCC/C=C(/NC(=O)[C@H](CCCCN)NC(=O)[C@H](Cc1cnc[nH]1)NC(=O)[C@@H]1CCCN1C(=O)[C@@H](CCCN)NC(=O)CNC(=O)[C@@H](NC(=O)[C@@H](NC(=O)[C@@H](N)CCCCN)[C@@H](O)CN)[C@@H](O)CN)C(=O)N[C@@H](CCCCN)C(=O)NCCCCN [22.7] (H-K[Dab(3S-OH)][Dab(3S-OH)]G[dOrn]PHK[X4]K-{NH(CH2)4NH2}) | ++ (≤8 μg/mL) | ++ (≤8 μg/mL) | ++ (≤8 μg/mL) | + (≤32 μg/mL) |
| N=C(N)NCC/C=C(\NC(=O)[C@H](CCCCN)NC(=O)[C@H](Cc1cnc[nH]1)NC(=O)[C@@H]1CCCN1C(=O)[C@@H](CCCN)NC(=O)CNC(=O)[C@@H](NC(=O)[C@@H](NC(=O)[C@@H](N)CCCCN)[C@@H](O)CN)[C@@H](O)CN)C(=O)N[C@@H](CCCCN)C(N)=O [22.8] (H-K[Dab(3S-OH)][Dab(3S-OH)]G[dOrn]PHK[ΔZArg]K-NH2) | ++ (≤8 μg/mL) | ++ (≤8 μg/mL) | ++ (≤8 μg/mL) | + (≤32 μg/mL) |
| C[C@H](NC(=O)/C(=C/CCNC(=N)N)NC(=O)[C@H](CCCCN)NC(=O)[C@H](Cc1cnc[nH]1)NC(=O)[C@@H]1CCCN1C(=O)[C@@H](CCCN)NC(=O)CNC(=O)[C@@H](NC(=O)[C@@H](NC(=O)[C@@H](N)CCCCN)[C@@H](O)CN)[C@@H](O)CN)C(=O)NCCCCN [22.10] (H-K[Dab(3S-OH)][Dab(3S-OH)]G[dOrn]PHK[ΔZArg]A-{NH(CH2)4NH2}) | + (≤32 μg/mL) | ++ (≤8 μg/mL) | ++ (≤8 μg/mL) | − (>32 μg/mL) |
